This note sets out measurements from patent US20260015325A1, “ALKOXY HETEROARYL- CARBOXAMIDE OR THIOAMIDE COMPOUNDS” (SYNGENTA CROP PROTECTION AG, priority 2022, published 2026).

Each structure is given as a SMILES string.

The test system of one test is Myzus persicae (Green Peach Aphid). The test can be described thus: Myzus persicae (Green Peach Aphid): feeding/contact activity, sunflower leaf discs. The format is in vivo. Particulars: foliar, 144 h, application rate of 200 ppm, mixed ages on sprayed sunflower leaf discs, 6 days after infestation, read-out: mortality. The protocol:
Example B6: Myzus persicae (Green Peach Aphid): Feeding/Contact Activity
Sunflower leaf discs were placed onto agar in a 24-well microtiter plate and sprayed with aqueous test solutions prepared from 10′000 ppm DMSO stock solutions. After drying, the leaf discs were infested with an aphid population of mixed ages. The samples were assessed for mortality 6 days after infestation.
Turning to `Cc1cnc(OC[C@H](C)NS(=O)(=O)C(F)(F)F)cc1C(=O)NC(C)C1CC1` (stereo partly drawn) [Compound P-73, N-(1-cyclopropylethyl)-5-methyl-2-[(2S)-2-(trifluoromethylsulfonylamino)propoxy]pyridine-4-carboxamide], the mortality at 200 ppm was no less than 80%. Turning to `Cc1cnc(OC[C@H](C)NS(=O)(=O)C(F)(F)F)cc1C(=O)Nc1cccc(C#N)c1F` [Compound P-75, N-(3-cyano-2-fluoro-phenyl)-5-methyl-2-[(2S)-2-(trifluoromethylsulfonylamino)propoxy]pyridine-4-carboxamide], the mortality at 200 ppm is no less than 80%. Still for that read-out and setting: for `Cc1cnc(OC[C@H](C)NS(=O)(=O)C(F)(F)F)cc1C(=O)NC(C)c1cccnc1` (stereo partly drawn) [Compound P-76, 5-methyl-N-[1-(3-pyridyl)ethyl]-2-[(2S)-2-(trifluoromethylsulfonylamino)propoxy]pyridine-4-carboxamide] the value was no less than 80%.

With `C[C@@H](COc1cnc(Cl)c(C(=O)NCC(=O)NCC2CC2)c1)NS(=O)(=O)C(F)(F)F` [Compound P-53, 2-chloro-N-[2-(cyclopropylmethylamino)-2-oxo-ethyl]-5-[(2S)-2-(trifluoromethylsulfonylamino)propoxy]pyridine-3-carboxamide], the mortality at 200 ppm is no less than 80%. On the same count and under the same terms, to `CCN1OC[C@H](NC(=O)c2cc(OC[C@H](C)NS(=O)(=O)C(F)(F)F)cnc2Cl)C1=O` [Compound P-49, 2-chloro-N-[(4S)-2-ethyl-3-oxo-isoxazolidin-4-yl]-5-[(2S)-2-(trifluoromethylsulfonylamino)propoxy]pyridine-3-carboxamide] belongs no less than 80%. The same measure, in the same setting: for `Cc1ncc(OC[C@H](C)NS(=O)(=O)C(F)(F)F)cc1C(=O)NCc1ncccc1Cl` [Compound P-32, N-[(3-chloro-2-pyridyl)methyl]-2-methyl-5-[(2S)-2-(trifluoromethylsulfonylamino)propoxy]pyridine-3-carboxamide] the value was no less than 80%; for `Cc1ncc(OC[C@H](C)NS(=O)(=O)C(F)(F)F)cc1C(=O)N(C)C1CC1` [Compound P-40, N-cyclopropyl-N,2-dimethyl-5-[(2S)-2-(trifluoromethylsulfonylamino)propoxy]pyridine-3-carboxamide], no less than 80%; for `CCc1ncsc1NC(=O)c1cc(OC[C@H](C)NS(=O)(=O)C(F)(F)F)ncc1C` [Compound P-68, N-(4-ethylthiazol-5-yl)-5-methyl-2-[(2S)-2-(trifluoromethylsulfonylamino)propoxy]pyridine-4-carboxamide], no less than 80%. As for `Cc1ncc(OC[C@H](C)NS(=O)(=O)C(F)(F)F)cc1C(=O)NC(C)C` [Compound P-34, N-isopropyl-2-methyl-5-[(2S)-2-(trifluoromethylsulfonylamino)propoxy]pyridine-3-carboxamide], the mortality at 200 ppm was no less than 80%. For the molecule `C[C@@H](COc1cnc(Cl)c(C(=O)N(C)CC(F)F)c1)NS(=O)(=O)C(F)(F)F` [Compound P-59, 2-chloro-N-(2,2-difluoroethyl)-N-methyl-5-[(2S)-2-(trifluoromethylsulfonylamino)propoxy]pyridine-3-carboxamide], the mortality at 200 ppm is no less than 80%. As to `Cc1cnc(OC[C@H](C)NS(=O)(=O)C(F)(F)F)cc1C(=O)NCc1ccc2c(c1)COC2` [Compound P-69, N-(1,3-dihydroisobenzofuran-5-ylmethyl)-5-methyl-2-[(2S)-2-(trifluoromethylsulfonylamino)propoxy]pyridine-4-carboxamide], the mortality at 200 ppm is no less than 80%.

Take `Cc1cnc(OC[C@H](C)NS(=O)(=O)C(F)(F)F)cc1C(=O)N(C)C1(C#N)CC1` [Compound P-67, N-(1-cyanocyclopropyl)-N,5-dimethyl-2-[(2S)-2-(trifluoromethylsulfonylamino)propoxy]pyridine-4-carboxamide]: the mortality at 200 ppm was no less than 80%.

Regarding `CCNC(=O)c1cc(OC[C@H](C)NS(=O)(=O)C(F)(F)F)cnc1C` [Compound P-36, N-ethyl-2-methyl-5-[(2S)-2-(trifluoromethylsulfonylamino)propoxy]pyridine-3-carboxamide], the mortality at 200 ppm is no less than 80%. The same measure, in the same setting: to `COCCC#CC(C)(C)NC(=O)c1cc(OC[C@H](C)NS(=O)(=O)C(F)(F)F)ncc1C` [Compound P-72, N-(5-methoxy-1,1-dimethyl-pent-2-ynyl)-5-methyl-2-[(2S)-2-(trifluoromethylsulfonylamino)propoxy]pyridine-4-carboxamide] belongs no less than 80%; to `CCN1OC[C@@H](NC(=O)c2cc(OC[C@H](C)N(COC)S(=O)(=O)C(F)(F)F)ncc2C)C1=O` [Compound P-78, N-[(4R)-2-ethyl-3-oxo-isoxazolidin-4-yl]-2-[(2S)-2-[methoxymethyl(trifluoromethylsulfonyl)amino]propoxy]-5-methyl-pyridine-4-carboxamide], no less than 80%; to `C[C@@H](COc1cnc(Cl)c(C(=O)NCC(F)F)c1)NS(=O)(=O)C(F)(F)F` [Compound P-55, 2-chloro-N-(2,2-difluoroethyl)-5-[(2S)-2-(trifluoromethylsulfonylamino)propoxy]pyridine-3-carboxamide], no less than 80%.

For the next test the test system is unchanged. The test can be described thus: Myzus persicae (Green Peach Aphid): intrinsic activity, sucrose solution. Type of test: in vivo. Particulars: 120 h, test rate of 12 ppm, intrinsic, mixed with sucrose solution under Parafilm, 5 days after infestation, read-out: mortality. An excerpt: Example B8: Myzus persicae (Green Peach Aphid). Intrinsic Activity
Test compounds prepared from 10′000 ppm DMSO stock solutions were applied by pipette into 24-well microtiter plates and mixed with sucrose solution. The plates were closed with a stretched Parafilm. A plastic stencil with 24 holes was placed onto the plate and infested pea seedlings were placed directly on the Parafilm. The infested plate was closed with a gel blotting paper and another plastic stencil and then turned upside down. The samples were assessed for mortality 5 days after infestation.
Regarding `C[C@@H](COc1cnc(Cl)c(C(=O)Nc2ncc(Cl)cc2F)c1)NS(=O)(=O)C(F)(F)F` [Compound P-19, 2-chloro-N-(5-chloro-3-fluoro-2-pyridyl)-5-[(2S)-2-(trifluoromethylsulfonylamino)propoxy]pyridine-3-carboxamide], the mortality at 12 ppm is no less than 80%.

`COCN([C@@H](C)COc1cc(C(=O)NC2CC2)c(Br)cn1)S(=O)(=O)C(F)(F)F` [Compound P-81, 5-bromo-N-cyclopropyl-2-[(2S)-2-[methoxymethyl(trifluoromethylsulfonyl)amino]propoxy]pyridine-4-carboxamide]: the mortality at 12 ppm is no less than 80%. On the same count and under the same terms, to `C[C@@H](COc1cnc(Cl)c(C(=O)NCC(F)F)c1)NS(=O)(=O)C(F)(F)F` [Compound P-55, 2-chloro-N-(2,2-difluoroethyl)-5-[(2S)-2-(trifluoromethylsulfonylamino)propoxy]pyridine-3-carboxamide] belongs no less than 80%.

A further test has as its system Tetranychus urticae (Two-Spotted Spider Mite). The experiment in a line: whole plant or invertebrate. Type of test: in vivo. To be noted: foliar, 192 h, application rate of 200 ppm, mixed population (mobile stages) on sprayed bean leaf discs, 8 days after infestation, read-out: mortality. The protocol: Example B11: Tetranychus urticae (Two-Spotted Spider Mite): Feeding/Contact Activity
Bean leaf discs on agar in 24-well microtiter plates were sprayed with aqueous test solutions prepared from 10′000 ppm DMSO stock solutions. After drying the leaf discs were infested with a mite population of mixed ages. The samples were assessed for mortality on mixed population (mobile stages) 8 days after infestation.
For the molecule `Cc1cnc(OC[C@H](C)NS(=O)(=O)C(F)(F)F)cc1C(=O)NCc1ccccc1` [Compound P-77, N-benzyl-5-methyl-2-[(2S)-2-(trifluoromethylsulfonylamino)propoxy]pyridine-4-carboxamide], the mortality at 200 ppm is no less than 80%. Same read-out and setting: to `C[C@@H](COc1cnc(Cl)c(C(=O)Nc2ncc(C#N)cc2F)c1)NS(=O)(=O)C(F)(F)F` [Compound P-18, 2-chloro-N-(5-cyano-3-fluoro-2-pyridyl)-5-[(2S)-2-(trifluoromethylsulfonylamino)propoxy]pyridine-3-carboxamide] belongs no less than 80%; to `Cc1ncc(OC[C@H](C)NS(=O)(=O)C(F)(F)F)cc1C(=O)NCC(F)F` [Compound P-39, N-(2,2-difluoroethyl)-2-methyl-5-[(2S)-2-(trifluoromethylsulfonylamino)propoxy]pyridine-3-carboxamide], no less than 80%; to `Cc1ncc(OC[C@H](C)NS(=O)(=O)C(F)(F)F)cc1C(=O)NC1CC(F)(F)C1` [Compound P-37, N-(3,3-difluorocyclobutyl)-2-methyl-5-[(2S)-2-(trifluoromethylsulfonylamino)propoxy]pyridine-3-carboxamide], no less than 80%.

`Cc1ncc(OC[C@H](C)NS(=O)(=O)C(F)(F)F)cc1C(=O)Nc1ccc(F)cc1F` [Compound P-33, N-(2,4-difluorophenyl)-2-methyl-5-[(2S)-2-(trifluoromethylsulfonylamino)propoxy]pyridine-3-carboxamide]: the mortality at 200 ppm was no less than 80%. As for `Cc1cnc(OC[C@H](C)NS(=O)(=O)C(F)(F)F)cc1C(=O)NCC(F)(F)F` [Compound P-80, 5-methyl-N-(2,2,2-trifluoroethyl)-2-[(2S)-2-(trifluoromethylsulfonylamino)propoxy]pyridine-4-carboxamide], the mortality at 200 ppm is no less than 80%. Same read-out and setting: to `C[C@@H](COc1cnc(Cl)c(C(=O)Nc2ccc(S(C)(=O)=O)cc2F)c1)NS(=O)(=O)C(F)(F)F` [Compound P-24, 2-chloro-N-(2-fluoro-4-methylsulfonyl-phenyl)-5-[(2S)-2-(trifluoromethylsulfonylamino)propoxy]pyridine-3-carboxamide] belongs no less than 80%. Consider `CCN1OC[C@H](NC(=O)c2cc(OC[C@H](C)NS(=O)(=O)C(F)(F)F)cnc2Cl)C1=O` [Compound P-49, 2-chloro-N-[(4S)-2-ethyl-3-oxo-isoxazolidin-4-yl]-5-[(2S)-2-(trifluoromethylsulfonylamino)propoxy]pyridine-3-carboxamide], for which the mortality at 200 ppm was no less than 80%. Take `Cc1ncc(OC[C@H](C)NS(=O)(=O)C(F)(F)F)cc1C(=O)NCc1ncccc1Cl` [Compound P-32, N-[(3-chloro-2-pyridyl)methyl]-2-methyl-5-[(2S)-2-(trifluoromethylsulfonylamino)propoxy]pyridine-3-carboxamide]: the mortality at 200 ppm is no less than 80%. Regarding `C[C@@H](COc1cnc(Cl)c(C(=O)NCc2ccccc2)c1)NS(=O)(=O)C(F)(F)F` [Compound P-44, N-benzyl-2-chloro-5-[(2S)-2-(trifluoromethylsulfonylamino)propoxy]pyridine-3-carboxamide], the mortality at 200 ppm was no less than 80%. On the same count and under the same terms, to `C[C@@H](COc1cnc(Cl)c(C(=O)NC2(C)CCOC2)c1)NS(=O)(=O)C(F)(F)F` (stereo partly drawn) [Compound P-51, 2-chloro-N-(3-methyltetrahydrofuran-3-yl)-5-[(2S)-2-(trifluoromethylsulfonylamino)propoxy]pyridine-3-carboxamide] belongs no less than 80%; to `CCN1OC[C@@H](NC(=O)c2cc(OC[C@H](C)N(COC)S(=O)(=O)C(F)(F)F)ncc2C)C1=O` [Compound P-78, N-[(4R)-2-ethyl-3-oxo-isoxazolidin-4-yl]-2-[(2S)-2-[methoxymethyl(trifluoromethylsulfonyl)amino]propoxy]-5-methyl-pyridine-4-carboxamide], no less than 80%; to `COCN([C@@H](C)COc1cc(C(=O)NC2(C#N)CC2)c(C)cn1)S(=O)(=O)C(F)(F)F` [Compound P-79, N-(1-cyanocyclopropyl)-2-[(2S)-2-[methoxymethyl(trifluoromethylsulfonyl)amino]propoxy]-5-methyl-pyridine-4-carboxamide], no less than 80%.

The term mortality denotes the percentage killed.
